For 13 compounds, IC50 and EC50 results are on record in patent publication US8759334B2, “Compounds useful for the treatment of metabolic and inflammatory diseases” (Galapagos NV, priority 2011, dated 2014).

Assay [1] concerns the target T1, GPR43 (Homo sapiens, UniProt O15552).
T1 construct: expressed in transfected cells
T1 sequence (O15552 1-330): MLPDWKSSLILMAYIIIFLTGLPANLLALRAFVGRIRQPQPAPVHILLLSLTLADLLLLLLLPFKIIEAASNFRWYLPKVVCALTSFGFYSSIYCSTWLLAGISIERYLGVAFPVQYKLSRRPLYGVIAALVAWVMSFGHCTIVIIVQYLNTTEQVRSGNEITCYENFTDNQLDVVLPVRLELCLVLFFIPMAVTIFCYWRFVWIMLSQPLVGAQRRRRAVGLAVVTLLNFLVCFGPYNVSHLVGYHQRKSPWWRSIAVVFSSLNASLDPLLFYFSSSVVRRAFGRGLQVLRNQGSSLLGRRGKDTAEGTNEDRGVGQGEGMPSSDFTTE
Nature of the assay: Calcium mobilization assay with probenecid. The settings on record: GPR43 stably expressing cells; triggered with sodium acetate at EC80; 2.5 mM probenecid; read-out: GPR43 assay with probenicid IC50. Type of assay: cell-based. In outline: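 […] being added at rising concentrations to a GPR43 stable line. Before this, cells were dye-loaded (Calcium 4 with 2.5 mM probenecid) for 2 h at 37 °C after overnight plating.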

In assay [2] the target is T1, GPR43. The assay can be described thus: Calcium mobilization assay without probenecid. Type of assay: cell-based. The settings on record: GPR43 stably expressing cells, triggered with sodium acetate at EC80, read-out: GPR43 assay without probenicid IC50. The gist of the method:
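In GPR43-expressing cells loaded with a Calcium 4 dye, antagonism was tested by a 15 min compound preincubation at 37 °C, then a sodium acetate challenge at EC80, with Ca-flux read on injection. For agonism, Ca-flux was recorded directly on compound injection.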

The target in assay [3] is T1, GPR43. Nature of the assay: [35S]GTPγS binding assay. Type of assay: biochemical. The settings on record: membranes from stable cell line over expressing GPR43; sodium acetate at EC80. The procedure: The assay was performed in a 96 well plate where the following reagents were added. […] In a last step, 30 μL of a mixture consisting of membranes-GTPγS-SpA beads was added (mixture consists of 10 μg/well membranes derived from stable cell line over expressing GPR43 (membranes were pre-incubated with 3 μM GDP for 15 minutes at 4° C.), 0.1 nM [35S]GTPγS (Perkin Elmer, NEG030) and 0.5 mg/well PVT-WGA SpA beads (perkin Elmer, RPNQ0001)). […] Reactions were incubated for 240 minutes at room temperature followed by centrifugation at 2000 rpm for 15 minutes. Plates were read on a Topcount immediately after centrifugation (readout time, 1 minute/well).

Another assay relates to human neutrophils. The assay can be described thus: Neutrophil migration assay. The settings on record: neutrophils from human buffy coat, migration towards sodium acetate, read-out: human neutrophil migration inhibition EC50. Type of assay: cell-based. The procedure: G Protein-Coupled Receptor 43 (GPR43) was described as an essential player in the process of neutrophil recruitment during intestinal inflammation.
The effect of agonists or antagonists for GPR43 can therefore be assayed in a neutrophil migration test. In the neutrophil migration assay, neutrophils, isolated from buffy coats from human volunteers, are treated with a compound for 30 minutes. Subsequently, the neutrophils are transferred to the upper wells of a Corning HTS transwell 96 permeable support system, of which the lower wells are filled with a sodium acetate solution.
The ACD buffer consists of 140 mM citric acid, 200 mM sodium citrate and 220 mM dextrose. The 6% dextran/0.9% NaCl solution consists of 15 g dextran T2000 and 2.25 g NaCl dissolved in 250 mL H2O.
A human buffy coat is diluted with an equal volume of ice cold DPBS. 20 mL of the diluted buffy coat is gently mixed with 4 mL of ACD buffer. Then, 12 mL of the 6% dextran/0.9% NaCl solution is added to the mixture and the samples are inverted gently up to 20 times. The total volume is transferred to a new recipient and incubated at room temperature for 1 h for complete separation of the two phases to occur. The yellowish supernatant is then transferred to a clean centrifugation tube and centrifuged for 12 minutes at 1300 rpm and 4° C. After centrifugation, the supernatant is discarded and the remaining cell pellet is rapidly resuspended in 12 mL of ice-cold H2O for red blood cell lysis to occur. After 20 seconds, 4 mL of ice-cold 0.6 M KCl is added. Samples are mixed carefully and centrifuged for 6 minutes at 1300 rpm, 4° C. The supernatant is discarded and the red blood cell lysis procedure is repeated one more time. […] After centrifugation for 12 min at 1300 rpm, 4° C., the supernatant is removed and the cell pellet, containing the neutrophils, is resuspended in 25 mL chemotaxis buffer.
A cell suspension of 8.9×10^6 cells per milliliter is prepared. 20 μL of compound solution in chemotaxis buffer is added to 180 μl cell suspension. The mixture is incubated at 37° C. for 30 minutes with Intermediate resuspension of the cells after 15 minutes. […] The receiver well of the transwell system is then filled with 200 μL chemotaxis buffer containing compound and chemotactic agent (sodium acetate). After incubation at 37° C. in 5% CO2 for 1 h, the upper plate of the transwell system is removed and the cell suspension in the receiver plate is transferred to a 96-well V-bottom plate. 50 μL of DPBS is added to the receiver plate to prevent remaining cells from drying out. The V-bottom plate is centrifuged for 6 minutes at 1500 rpm. The supernatant is removed and the cells are resuspended in 50 μL DPBS. The cells are then transferred back to the receiver plate of the transwell system. […] The plate is incubated for 10 minutes in the dark, while shaking. 170 μL of cell lysate is then transferred to a white 96-well plate and luminescence is measured. The detected luminescent signal is considered as linearly related to the number of migrated cells.

Structures are written as SMILES.

For the compound `CC1(C(=O)N(CCO)Cc2ccc(Cl)cc2)CCN1C(=O)Cc1csc2ccccc12` (stereo not shown) [Compound 67, 1-(2-Benzo[b]thiophen-3-yl-acetyl)-2-methyl-azetidine-2-carboxylic acid (4-chloro-benzyl)-(2-hydroxy-ethyl)-amide], the IC50 on GPR43 [1] was above 1000 nM; at GPR43 [2] it was 0.01 to 100 nM; on GPR43 [3], 101 to 500 nM.
As for `Cc1cc(C)cc(CC(=O)N2CCC2(C)C(=O)N(CC(=O)O)Cc2ccc3cc[nH]c3c2)c1` (stereo not shown) [Compound 96, [{1-[2-(3,5-Dimethyl-phenyl)-acetyl]-2-methyl-azetidine-2-carbonyl}-(1H-indol-6-ylmethyl)-amino]-acetic acid], the IC50 at GPR43 [1] and at GPR43 [2] was 101 to 500 nM in each case. For the same compound, the EC50 in the assay with human neutrophils is 0.01 to 100 nM.
Regarding `CC1(C(=O)N(CCCC(=O)O)Cc2ccc(Cl)cc2)CCN1C(=O)c1csc2ccccc12` (stereo not shown) [Compound 115, 4-[[1-(Benzo[b]thiophene-3-carbonyl)-2-methyl-azetidine-2-carbonyl]-(4-chloro-benzyl)-amino]-butyric acid], the IC50 at GPR43 [1] was in the range of 0.01 to 100 nM; on GPR43 [3], 101 to 500 nM. The EC50 in the assay on human neutrophils was 0.01 to 100 nM.
In the case of `CC1(C(=O)N(CCCC(=O)O)Cc2ccc3cc[nH]c3c2)CCN1C(=O)Cc1csc2ccccc12` (stereo not shown) [Compound 128, 4-[[1-(2-Benzo[b]thiophen-3-yl-acetyl)-2-methyl-azetidine-2-carbonyl]-(1H-indol-6-ylmethyl)-amino]-butyric acid], the IC50 at GPR43 [1] fell in the range of 0.01 to 100 nM; at GPR43 [3] it was 101 to 500 nM. Further, the EC50 with human neutrophils lay in the range of 0.01 to 100 nM.
In the case of `CC1(C(=O)N(CCCC(=O)O)Cc2ccc3cc[nH]c3c2)CCN1C(=O)c1csc2ccccc12` (stereo not shown) [Compound 134, 4-[[1-(Benzo[b]thiophene-3-carbonyl)-2-methyl-azetidine-2-carbonyl]-(1H-indol-6-ylmethyl)-amino]-butyric acid], the IC50 was 0.01 to 100 nM at GPR43 [1] and above 501 nM at GPR43 [3]. For the same compound, the EC50 with human neutrophils was 0.01 to 100 nM.
With `CC1(C(=O)N(CCCC(=O)O)Cc2ccc(C(F)(F)F)cc2)CCN1C(=O)Cc1csc2ccccc12` (stereo not shown) [Compound 144, 4-[[1-(2-Benzo[b]thiophen-3-yl-acetyl)-2-methyl-azetidine-2-carbonyl]-(4-trifluoromethyl-benzyl)-amino]-butyric acid], the results for the IC50 at GPR43 [1] and at GPR43 [3] were 0.01 to 100 nM and 51 to 100 nM, respectively. In addition, the EC50 in the assay with human neutrophils lay in the range of 0.01 to 100 nM.
As to `CC1(C(=O)N(CCC(=O)O)Cc2ccc(Cl)cc2)CCN1C(=O)c1csc2ccccc12` (stereo not shown) [Compound 155, 3-[[1-(Benzo[b]thiophene-3-carbonyl)-2-methyl-azetidine-2-carbonyl]-(4-chloro-benzyl)-amino]-propionic acid], the IC50 on GPR43 [1] was 0.01 to 100 nM; on GPR43 [3], above 501 nM. Also, the EC50 with human neutrophils lay in the range of 0.01 to 100 nM.
For `CC1(C(=O)N(CCC(=O)O)Cc2cccc(Cl)c2)CCN1C(=O)c1csc2ccccc12` (stereo not shown) [Compound 169, 3-[[1-(Benzo[b]thiophene-3-carbonyl)-2-methyl-azetidine-2-carbonyl]-(3-chloro-benzyl)-amino]-propionic acid], the figures for the IC50 at GPR43 [1] and at GPR43 [3] were 0.01 to 100 nM and above 501 nM, respectively. Moreover, in the assay on human neutrophils, the EC50 is 101 to 500 nM.
For `CC1(C(=O)N(CCCS(N)(=O)=O)Cc2ccc(Cl)cc2)CCN1C(=O)c1csc2ccccc12` (stereo not shown) [Compound 182, 1-(Benzo[b]thiophene-3-carbonyl)-2-methyl-azetidine-2-carboxylic acid (4-chloro-benzyl)-(3-sulfamoyl-propyl)-amide], the IC50 was 0.01 to 100 nM at GPR43 [1] and 101 to 500 nM at GPR43 [3].
On to `CC1(C(=O)N(CCCS(N)(=O)=O)Cc2cccc(Cl)c2)CCN1C(=O)c1csc2ccccc12` (stereo not shown) [Compound 187, 1-(Benzo[b]thiophene-3-carbonyl)-2-methyl-azetidine-2-carboxylic acid (3-chloro-benzyl)-(3-sulfamoyl-propyl)-amide], for which the results for the IC50 at GPR43 [1] and at GPR43 [3] were 0.01 to 100 nM and 101 to 500 nM, respectively.
Regarding `CC1(C(=O)N(CCCC(=O)O)c2ccc(Cl)cc2)CCN1C(=O)c1csc2ccccc12` (stereo not shown) [Compound 194, 4-[[1-(Benzo[b]thiophene-3-carbonyl)-2-methyl-azetidine-2-carbonyl]-(4-chloro-phenyl)-amino]-butyric acid], the IC50 at GPR43 [1] was 0.01 to 100 nM; at GPR43 [3], above 501 nM.
Regarding `CCC1(C(=O)N(CCCC(=O)O)Cc2cccc(Cl)c2)CCN1C(=O)c1csc2ccccc12` (stereo not shown) [Compound 195, 4-[[1-(Benzo[b]thiophene-3-carbonyl)-2-ethyl-azetidine-2-carbonyl]-(3-chloro-benzyl)-amino]-butyric acid], the IC50 on GPR43 [1] was 0.01 to 100 nM; on GPR43 [3] it was 101 to 500 nM.
The like results for `C[C@@H](c1ccc(Cl)cc1)N(CCCC(=O)O)C(=O)[C@@]1(C)CCN1C(=O)c1csc2ccccc12` [Compound 198, 4-{[(R)-1-(Benzo[b]thiophene-3-carbonyl)-2-methyl-azetidine-2-carbonyl]-[(S)-1-(4-chloro-phenyl)-ethyl]-amino}-butyric acid] were, in that order, 0.01 to 100 nM and 101 to 500 nM.
